This is an account of results in PubChem BioAssay AID686920 (Broad Institute, 2013).

Calls of active or inactive are those of the source.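 Rule for the calls: active = fitted curve reaching 35% inhibition at a dose no higher than twice the top valid tested dose; inconclusive = flat fit with 30 to 70% inhibition, or a poor fit; inactive = the rest, including activity in the opposite direction.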

The experiment relates to A673 NR0B1-luciferase reporter, viability-normalised luminescence. As to the kind of experiment: suppressors of NR0B1-promoter luciferase reporter, dose response, EWS/Fli inhibitor project, luciferase luminescence, A673 cells, cherry-pick (AID 686920). A general note: A reporter such as luciferase makes a cellular process visible.

For `C[C@H]1CN([C@@H](C)CO)C(=O)Cc2cc(NC(=O)CCCCCC(=O)Nc3ccccc3N)ccc2O[C@H]1CN(C)Cc1ccc(C(F)(F)F)cc1`, the AC35 was 6.15 µM.
As for `C[C@@H]1CN([C@@H](C)CO)S(=O)(=O)c2ccc(C#Cc3ccncc3)cc2O[C@H]1CN(C)C(=O)C1CCOCC1`, the figure is 49.8 µM; as for `O=C(CCc1ccccc1)NC(c1cccs1)c1cc(Cl)c2cccnc2c1O` (configuration not stated), 5.42 µM.
Turning to `CN(C)C(=O)c1cccc(-c2ccc(C3[C@@H]4CN(Cc5nccs5)C[C@H]3N4)cc2)c1` (some centres not stated), the AC35 is > 68 µM (inactive).
In the case of `CCCN1C(=O)/C(=C/c2nc3ccccc3c(=O)[nH]2)c2ccccc21`, the AC35 was 32.5 µM.
`C[C@@H]1CN([C@@H](C)CO)C(=O)Cc2cc(NS(=O)(=O)c3cccs3)ccc2O[C@H]1CN(C)Cc1ccc(Cl)c(Cl)c1`: the AC35 is 3.76 µM.
Turning to `O=C(c1cccc(S(=O)(=O)NCc2ccccc2)c1)N1CCN(c2ccccc2)CC1`, the AC35 was 11.6 µM.
As for `CN(C)c1ccc(N=Nc2nc3ccccc3n2C)cc1`, the AC35 is 12.5 µM.
As for `C[C@H]1CN([C@@H](C)CO)C(=O)c2cc(NS(=O)(=O)c3ccc(Cl)cc3)ccc2O[C@H]1CN(C)Cc1ccc(C(=O)Nc2ccccc2N)cc1`, the AC35 was 14.5 µM.
`Cc1cc(C)c2sc(NNC(=O)c3ccc(S(=O)(=O)N4CCc5ccccc5C4)cc3)nc2c1`: the AC35 is 5.12 µM.
As for `Cc1c(CC(=O)NCCCC(=O)O)c(=O)oc2cc3c(cc12)CCC(C)(C)O3`, the figure is 2.74 µM.
For `C[C@@H]1CCCCO[C@H](CN(C)Cc2ccc(C(F)(F)F)cc2)[C@H](C)CN([C@H](C)CO)C(=O)c2cc(NC(=O)CCCN(C)C)ccc2O1`, the AC35 was 11.9 µM.
Regarding `COC(=O)c1ccccc1-c1c2ccc(=N)cc-2oc2cc(N)ccc12`, the AC35 is 2.83 µM.
As for `N/C(=C\C(=O)c1cc(Cl)ccc1O)C(Cl)(Cl)Cl`, the figure is 4.64 µM; as for `CCc1ccc(/C=C2\SC(=S)N(CCCC(=O)Nc3cc(C)on3)C2=O)cc1`, 0.947 µM; as for `COc1ccc(OC)c(Cc2cnc3nc(N)nc(N)c3c2C)c1`, 0.0922 µM.
In the case of `C[C@H]1CN([C@@H](C)CO)C(=O)Cc2cc(NC(=O)C3CC3)ccc2O[C@H]1CN(C)S(=O)(=O)c1ccc(Cl)cc1`, the AC35 is 16.1 µM.
As for `CC1(C)Oc2cc3oc(-c4cc(O)cc(O)c4)cc3cc2CC1O` (configuration not stated), the AC35 was 2.07 µM.
Regarding `COc1ccc(Cl)cc1S(=O)(=O)Nc1ccc2c(c1)n(C)c(=O)n2C`, the AC35 was 31.3 µM.
On to `C=C1C(=O)OC2C1CCC(C)C1(O)C=CC(=O)C21C` (configuration not stated), for which the AC35 is 11.5 µM.
For the molecule `CN(CCO)c1ccc(/C=N/Nc2nncc3ccccc23)cc1`, the AC35 is 5.2 µM.
`CCN(CC)C(=O)CN1C(=O)C(=O)c2ccccc21`: the AC35 is 42 µM.
As for `Nc1cc2c(cc1Br)[nH]c(=O)c1ccccc12`, the figure is 43.3 µM; as for `CO[C@H]1CN(C)C(=O)c2cc(NC(=O)NC(C)C)ccc2OC[C@H](C)N(Cc2ccc(-c3ccccn3)cc2)C[C@@H]1C`, 5.22 µM; as for `CC1=NC(=O)C(N=Nc2cccc(C(=O)O)c2)N1c1ccccc1` (configuration not stated), 6.99 µM.
As for `COc1ccc(/C=C2/NC(=O)N(CC(=O)Nc3cccc(C)c3)C2=O)cc1O`, the figure is 9.76 µM; as for `CC1(C)N=C(N)N=C(N)N1c1ccc(CCCCc2ccccc2)cc1`, 2.72 µM.
On to `CCCC[C@@H]1Cc2[nH][nH]c(=O)c2[C@H](c2ccc3ccccc3c2)O1`, for which the AC35 was 11.8 µM.
Take `C[C@@H]1CN([C@@H](C)CO)S(=O)(=O)c2ccc(C#CCN(C)C)cc2O[C@@H]1CN(C)Cc1ccncc1`: the AC35 was 60.2 µM.
With `COc1cc2c(OC(C)=O)c3c(c(-c4ccc5c(c4)OCO5)c2cc1OC)C(=O)OC3`, the AC35 is 2.34 µM.
Consider `CCCNC(=O)N1[C@H](C#N)[C@H](c2ccc(C#Cc3cccc(F)c3)cc2)[C@H]1CO`, for which the AC35 was 8.47 µM.
To `C[C@]12CC[C@H](O)C[C@H]1CC[C@@H]1[C@@H]2CC[C@]2(C)[C@@H](C3=CC(=O)OC3)CC[C@]12O` belongs 0.395 µM; to `C[C@@H]1O[C@@H](O[C@H]2C[C@@H](O)[C@]3(CO)[C@H]4[C@H](O)C[C@]5(C)[C@@H](C6COC(=O)C6)CC[C@]5(O)[C@@H]4CC[C@]3(O)C2)[C@H](O)[C@H](O)[C@H]1O` (some centres not stated), 1.24 µM; to `O=C(Nc1ccc(NC(=O)c2cc3ccccc3o2)cc1)c1ccc2c(c1)OCCO2`, 13.2 µM.
For `CN=c1scc(-c2cccs2)n1/N=C/c1ccccc1O`, the AC35 is 0.298 µM.
Turning to `CC(C)(C)[S@](=O)N1Cc2cc(C(=O)NCC(F)(F)F)nc(-c3cccc(-c4cccc(F)c4)c3)c2[C@@H]1CCO`, the AC35 was 18.9 µM.
To `O=c1cc(-c2ccccc2)oc2ccc3ccccc3c12` belongs 1.43 µM; to `COc1cccc(Sc2ccccc2/C=N/NC(N)=O)c1`, 2.17 µM.
Take `C[C@@H]1CN([C@@H](C)CO)S(=O)(=O)c2ccc(C#CC(C)(C)O)cc2O[C@H]1CN(C)Cc1ccc(-c2ccccc2)cc1`: the AC35 is 2.8 µM.
As to `Cc1ccsc1C(=O)OCC(=O)c1cc(C)n(C)c1C`, the AC35 is 6.2 µM.
With `COc1ccc(/C=N/Nc2ccc(C(=O)O)cc2)cc1Br`, the AC35 was 3.93 µM.
With `CN1c2ccc(-c3ccc(C#N)cc3)cc2[C@H]2[C@H](CCN2S(=O)(=O)c2cccc(F)c2)[C@@H]1CO`, the AC35 was 4.64 µM.
Regarding `CC(C)c1ccccc1NC(=O)COC(=O)CCN1C(=O)/C(=C\C=C\c2ccccc2)SC1=S`, the AC35 was 1.9 µM.
Consider `CCN1/C(=C/C=C/c2oc3ccc(-c4ccccc4)cc3[n+]2CC)Oc2ccc(-c3ccccc3)cc21`, for which the AC35 is 2.49 µM.
In the case of `COc1ccc(C2=Nn3c(nnc3-c3ccccc3F)SC2)cc1OC1CCOC1` (configuration not stated), the AC35 was 4.37 µM.
Turning to `Cc1cc(C)cc(N2C(=O)NC(=O)/C(=C\C=C\c3ccco3)C2=O)c1`, the AC35 was 4.31 µM.
`C=CCOc1ccccc1C(=O)/C=C1/C(=O)Nc2ccccc21`: the AC35 was 14.5 µM.
`Oc1c(C(c2ccc(Cl)cc2)N2CCCC2)cc(Cl)c2cccnc12` (configuration not stated): the AC35 is 9.79 µM.
For the molecule `CC(C)N1C/C(=C/c2cccnc2)C(=O)/C(=C/c2cccnc2)C1`, the AC35 is 10.8 µM.
As for `Cc1c(Cl)cccc1NC(=O)CCC(=O)N/N=C/c1ccc[nH]1`, the AC35 was 4.78 µM.
In the case of `Cc1ccc(S(=O)(=O)Nc2ccc3c(c2)C(=O)N([C@@H](C)CO)C[C@H](C)[C@@H](CN(C)Cc2ccc(C(F)(F)F)cc2)OCCCC[C@@H](C)O3)cc1`, the AC35 is 10.2 µM.
Take `C[C@H]1CN([C@@H](C)CO)C(=O)c2cc(NC(=O)C3CCCCC3)ccc2O[C@H]1CN(C)Cc1ccc(C(=O)Nc2ccccc2N)cc1`: the AC35 was 4.8 µM.
For `COc1ccc(S(=O)(=O)Nc2ccc3c(c2)C(=O)N([C@H](C)CO)C[C@@H](C)[C@@H](CN(C)Cc2ccc(C(=O)Nc4ccccc4N)cc2)O3)cc1`, the AC35 is 5.11 µM.
As for `C[C@@H]1CN([C@@H](C)CO)C(=O)c2cccc(N(C)C)c2O[C@@H]1CN(C)Cc1ccc(C(=O)Nc2ccccc2N)cc1`, the AC35 is 39.8 µM.
For `c1ccc(Nc2nnc(-c3ccc4c(c3)OCO4)o2)cc1`, the AC35 was 3.06 µM.
Turning to `COc1ccc(C2c3cc4c(cc3OC(NNC(N)=O)C2C)OCO4)cc1` (configuration not stated), the AC35 is 14 µM.
Take `CCN1CCN(/C=N/c2nc3c(s2)CCCC3)CC1`: the AC35 is 7.97 µM.
To `CCOc1cc(/C=N/Nc2cc(C)nc(-n3nc(C)cc3C)n2)ccc1O` belongs 35.8 µM; to `O=C1Nc2cc(C(=O)NCCN3CCCCCC3)ccc2S/C1=C\c1ccccc1`, 11.6 µM; to `CC(C)(C)c1ccc(Cn2c(=O)cnc3ccccc32)cc1`, 13.2 µM.
In the case of `O=c1[nH]c(=O)n(C2C[C@H](O)[C@@H](CO)O2)cc1C(F)(F)F` (some centres not stated), the AC35 is 4.01 µM.
With `O=c1cc(CN2CCN(Cc3ccccc3)CC2)c2ccc(O)c(O)c2o1`, the AC35 is 23.3 µM.
To `CCCCCCCCn1c2c(c(=N)c3c1CCC3)CCCC2` belongs 5.73 µM; to `COc1cccc(-c2cccc(-c3nc(C(=O)NCC(F)(F)F)cc4c3[C@H](CCO)N([S@@](=O)C(C)(C)C)C4)c2)c1`, 3.19 µM; to `OC[C@H]1[C@@H](c2ccc(C#CC3CCCC3)cc2)[C@@H]2CN(CCC(F)(F)F)CCCCN12`, 9.24 µM.
As for `C[C@H]1CN([C@@H](C)CO)S(=O)(=O)c2ccc(C#Cc3ccncc3)cc2O[C@@H]1CN(C)C(=O)Nc1ccc2c(c1)OCO2`, the AC35 is 10.1 µM.
`CC1=NN(c2ccc(C)cc2)C(=O)/C1=C\C=C\c1ccccc1`: the AC35 was 10.2 µM.
Consider `CCc1ccc(N2C=C(C(=O)OC)C(c3ccc(OC)cc3)C(C#N)=C2N)cc1` (configuration not stated), for which the AC35 was 5.38 µM.
Take `O=C(NCCc1ccccc1)c1ccccc1NC(=O)C1CCCO1` (configuration not stated): the AC35 was 6.89 µM.
For `C=CCn1c(O)c(N=Nc2ccccc2)c2ccccc21`, the AC35 was 38.9 µM.
To `CCOc1ccc(C(c2c(NC(=O)c3ccccc3)sc(C)c2C)N2CCN(CCO)CC2)cc1` (configuration not stated) belongs 46.3 µM; to `C[C@@H]1CN([C@@H](C)CO)C(=O)c2cccc(NS(=O)(=O)c3ccc(Cl)cc3)c2O[C@@H]1CN(C)Cc1ccc(C(=O)Nc2ccccc2N)cc1`, 5.31 µM; to `Cc1cc2c(C(C)C)c(O)c(O)c(C=O)c2c(O)c1-c1c(C)cc2c(C(C)C)c(O)c(O)c(C=O)c2c1O`, 7.16 µM.
Turning to `CCc1ccc2oc(C(=O)N3CCN(c4ccccc4OC)CC3)cc(=O)c2c1`, the AC35 is 10.7 µM.
With `C[C@@H]1CCCCO[C@H](CN(C)Cc2ccc(C(=O)Nc3ccccc3N)cc2)[C@@H](C)CN([C@@H](C)CO)C(=O)c2cc(NS(=O)(=O)c3ccc(Cl)cc3)ccc2O1`, the AC35 is 6.13 µM.
Consider `COC(=O)COc1ccc(-c2nccc(-c3ccccn3)n2)cc1`, for which the AC35 was 1.5 µM.
`Cc1nc2ncccn2c1-c1csc(Nc2ccc(O)cc2)n1`: the AC35 was 8.68 µM.
For the molecule `O=C1c2ccccc2C(=O)c2cc(N3CCCCC3)ccc21`, the AC35 is 2.65 µM.
To `COc1ccc(N=C(NN)c2ccc3ccccc3n2)cc1` belongs 21.8 µM; to `C(=N\Nc1ccc2ccccc2n1)/c1ccc2c(c1)OCCO2`, 0.728 µM; to `CC[C@@H]1C[C@H]2CC[C@H](O2)[C@H](C)C(=O)O[C@@H](C)C[C@@H]2CC[C@@H](O2)[C@@H](C)C(=O)O[C@H](C)C[C@H]2CC[C@H](O2)[C@H](C)C(=O)O[C@@H](C)C[C@@H]2CC[C@@H](O2)[C@@H](C)C(=O)O1`, 0.0992 µM.
Regarding `C[C@@H]1CN([C@H](C)CO)C(=O)c2cc(C#CCN(C)C)cnc2O[C@H]1CN(C)Cc1ccc(-c2ccccc2)cc1`, the AC35 is 10.9 µM.
